Where a name gives a salt, the structure may show the parent alone.
The compounds below were run against T1, HERG channel (Homo sapiens, UniProt Q12809) (assay: Test B: Rb+-efflux assay for detection of HERG channel blockers). Conditions: depolarisation-induced Rb+-efflux from Chinese hamster ovary cells stably expressing the HERG-channel; read-out: pIC50 for HERG channel blockade (converted).
T1 construct: expressed in transfected cells
T1 sequence (Q12809 whole entry): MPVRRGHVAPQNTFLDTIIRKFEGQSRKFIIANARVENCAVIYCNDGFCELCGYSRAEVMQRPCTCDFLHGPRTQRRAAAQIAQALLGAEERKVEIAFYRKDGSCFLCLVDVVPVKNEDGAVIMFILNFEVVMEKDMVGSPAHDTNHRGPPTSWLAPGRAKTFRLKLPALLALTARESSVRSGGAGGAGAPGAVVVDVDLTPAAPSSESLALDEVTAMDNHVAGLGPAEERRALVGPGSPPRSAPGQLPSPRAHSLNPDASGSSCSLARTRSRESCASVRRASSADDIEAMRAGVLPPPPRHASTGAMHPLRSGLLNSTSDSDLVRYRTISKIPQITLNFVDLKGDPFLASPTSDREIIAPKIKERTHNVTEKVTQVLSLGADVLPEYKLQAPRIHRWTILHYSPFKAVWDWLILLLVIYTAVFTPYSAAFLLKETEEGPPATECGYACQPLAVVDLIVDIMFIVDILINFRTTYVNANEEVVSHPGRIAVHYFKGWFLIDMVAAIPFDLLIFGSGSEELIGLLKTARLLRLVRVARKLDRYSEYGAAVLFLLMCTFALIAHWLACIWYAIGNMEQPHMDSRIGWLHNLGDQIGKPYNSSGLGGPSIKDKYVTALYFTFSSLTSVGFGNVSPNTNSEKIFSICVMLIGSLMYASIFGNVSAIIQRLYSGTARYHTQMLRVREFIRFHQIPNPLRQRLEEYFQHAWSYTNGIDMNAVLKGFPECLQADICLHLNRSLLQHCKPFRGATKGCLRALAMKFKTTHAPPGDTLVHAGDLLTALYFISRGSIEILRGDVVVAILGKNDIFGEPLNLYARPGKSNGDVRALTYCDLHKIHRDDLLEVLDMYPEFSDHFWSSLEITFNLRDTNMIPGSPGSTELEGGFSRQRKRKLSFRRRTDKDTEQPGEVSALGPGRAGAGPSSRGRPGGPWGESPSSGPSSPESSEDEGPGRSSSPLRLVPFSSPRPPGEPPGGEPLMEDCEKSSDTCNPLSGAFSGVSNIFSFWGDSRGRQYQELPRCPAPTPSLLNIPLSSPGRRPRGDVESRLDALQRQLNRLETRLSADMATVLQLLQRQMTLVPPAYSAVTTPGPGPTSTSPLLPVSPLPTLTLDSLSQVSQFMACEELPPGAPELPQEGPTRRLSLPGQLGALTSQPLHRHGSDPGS
Assay type: cell-based
Method: Rb^+-Efflux Assay for Detection of HERG Channel Blockers
The human ether-a-go-go related gene (HERG) encodes the voltage-gated K^+ channel underlying the cardiac rapid delayed rectifier current IKr. The IC50 value for HERG channel blockade was determined using a high throughput functional assay based on depolarisation-induced Rb^+-efflux from Chinese hamster ovary cells stably expressing the HERG-channel.
Cells were grown in Ham F12 (Life Technologies 31765-027) supplemented with 10% FBS and 0.6 mg/mL hygromycin B and were routinely passaged twice-weekly. For experimental studies, cells were plated at a density of 15,000 cells/well in Falcon, 384-well tissue culture-treated black-walled clear-bottomed plates and were thereafter incubated overnight at 37° C. in a cell culture incubator.
Following incubating overnight, cell plates were washed and a Rb^+-Load buffer (a physiological buffer containing Rb^+) was added. Cell plates were then incubated for 3 hours and were thereafter washed. Following this wash, the test compounds were added. The cell plates were then incubated for another 10 minutes and, following this incubation period, external K^+ concentration was increased in order to depolarize the cells and activate HERG channels. After a ten minute exposure period to the increased K^+ concentration, supernatants were transferred to new microplates for subsequent determination of Rb^+ content, using Atomic Absorption Spectrometry analysis.
The basal Rb^+ efflux (content of Rb^+ (mg/L) in supernatants of wells receiving only wash buffer) was defined as 100% inhibition and the stimulated Rb^+efflux (content of Rb^+ (mg/L) in supernatants of wells exposed only to increased external potassium concentration) was defined as 0% inhibition.
Compound activity was expressed as: […]
A: Rb^+ content in wells receiving test compound+increased external K^+.
C: Stimulated Rb^+ efflux.
`CN(C)C(=O)N(CCOc1ccc(C#N)cc1)CCN1CC2CN(Cc3ccc(OC(F)F)cc3)CC(C1)O2` [9 (xlvi), N-[2-(4-cyanophenoxy)ethyl]-N-(2-{7-[4-(difluoromethoxy)-benzyl]-9-oxa-3,7-diazabicyclo[3.3.1]non-3-yl}ethyl)-N′,N′-dimethylurea] showed an IC50 of 4170 nM.
In the case of `CS(=O)(=O)N(CCOc1ccc(C#N)cc1)CCN1CC2CN(Cc3ccccc3)CC(C1)O2` [Example 2, N-[2-(7-Benzyl-9-oxa-3,7-diazabicyclo[3.3.1]non-3-yl)ethyl]-N-[2-(4-cyanophenoxy)ethyl]methanesulfonamide, tartaric acid salt], the IC50 is reported as 2820 nM.
With `CS(=O)(=O)N(CCOc1ccc(C#N)cc1)CCN1CC2CN(Cc3ccc(F)cc3)CC(C1)O2` [Example 3, N-[2-(4-Cyanophenoxy)ethyl]-N-{2-[7-(4-fluorobenzyl)-9-oxa-3,7-diaza-bicyclo[3.3.1]non-3-yl]ethyl}methanesulfonamide] the IC50 was 1580 nM.

— patent US7354917B2, “Oxabispidine compounds and their use in the treatment of cardiac arrhythmias” (AstraZeneca AB, priority 2004, dated 2008)
